The subject of one data set is A498. Nature of the data set: XTT cell viability assay, A498. In kind it is cell-based, human. As to conditions: Homo sapiens, A498; XTT assay (48 h); standard deviation of 10%; read-out: EC50 (μM) Kidney A498. The procedure:
(§1) Fifty microliters of sodium 3′-[1-phenylaminocarbonyl)-3,4-tetrazolium]-bis(4-methoxy-6-nitro) benzene sulfonic acid hydrate (XTT) reagent was added to each well. The assay is based on the cleavage of the yellow tetrazolium salt XTT to form an orange formazan dye by metabolically active cells. The absorbance of the formazan product, reflecting cell viability, was measured at 490 nm. Each assay was performed in quadruplicate.
(§2) Compounds #1-#14 have been assayed as potential anti-proliferative agents against a panel of human breast head and neck, and kidney tumor cells and hematological malignancies, selected on the basis of their aggressiveness (e.g. incurable triple-negative breast cancer cells: MDA-MB-231; kidney ccRCC cells: RCC4, A498 and 786-O and 786R; head and neck cancer cells: CAL33, CAL33RR, CAL27, and CAL27RR; acute myeloid cell lines: OCI-AML2, OCI-AML3, MolM13, and MolM14; myelodysplastic cell line: SM1; and chronic myeloid cell line: CML). All these cell lines share as common denominator the expression of CXCR1 and CXCR2. The EC50 values have been measured by a XTT colorimetric assay, and compared to those of SB-225002, used as a reference; the results are listed in Table 1.
(In general: Tetrazolium dyes change colour on reduction, which living cells bring about.)

For a further data set, the system named is 786-O. Nature of the data set: XTT cell viability assay, 786-O. The class given is cell-based, human. Here is the method: A, B: Naive (786-O, A), and sunitinib-resistant (786-R, B) 786-O cells, were treated with compound #1 or sunitinib (1 to 10 μM) for 48 hr. Cell viability was measured by XTT assays;
D, E: 786-O (D), 786-R (E), were treated with 2.5 μM compound #1 or 2.5 μM sunitinib for 24 h to 96 h. The cells metabolism was measured by XTT assay;
as §1, §2

A further data set has as its system CAL33. Nature of the data set: XTT cell viability assay, CAL33. The class given is cell-based. As to conditions: Homo sapiens, CAL-33; XTT assay (48 h); standard deviation of 10%; read-out: EC50 (μM) Head and Neck CAL33. Here is the method: as §1, §2
The test system of the next data set is CAL27RR. Nature of the data set: XTT cell viability assay, CAL27RR (cisplatin-resistant). In kind it is cell-based, human. Here is the method: A, B: Naive (Cal27, A), and cisplatine-resistant (Cal27R, B) Cal27 cells, were treated with compound #1 or cisplatine (1 to 10 μM) for 48 hr. Cell viability was measured by XTT assays;
C, D: Cal27 (C), cal27R (D), were treated with 2.5 μM compound #1, 2.5 μM cisplatin for 24 h to 96 h. The metabolism of cells was measured by XTT assay.
as §1, §2

The subject of data set [1] is healthy human fibroblasts (FHN). Nature of the data set: FACS analysis of cell death markers (AV, PI), healthy fibroblasts. The class given is cell-based. As to conditions: 5 μM, 48 h. Here is the method: FIG. 1: Observation by FACS analyses of early (Annexin AV) and late (Propidium Iodide, PI) apoptosis markers expressed by healthy and malignant cells after treatment with compounds #1 and #2 at 5 μM. CT: negative control.
(§3) Apoptosis analysis: After stimulation, cells were washed with ice-cold PBS and were stained with the annexin-V-fluos staining kit (Roche, Meylan, France) according to the manufacturer's procedure. Fluorescence was measured by using the FL2 (AV) and FL3 (propidium iodide, PI) channels of a fluorescence-activated cell sorter apparatus (Calibur cytometer).
To complete these XTT assays, malignant (ccRCC and hematological) and healthy (human fibroblasts FHN) cells have been grown with compounds #1 or #2, and after 48h the expression of cell death markers (AV and PI) has been quantified by FACS analyses (FIG. 1).
For orientation: In flow cytometry, cells or beads pass a laser one at a time.

In the next data set the test system is caspase-3 activity. Nature of the data set: Caspase-3 activity assay. The class given is cell-based, human. The note with it: 2.5 μM, 48 hr, 786-O and 786-R. The procedure:
F: Cells were treated with 2.5 and 5 μM compound #1, with 2.5 μM sunitinib for 48 hr. Cells were lysed in caspase buffer and caspase-3 activity was evaluated using 0.2 mM Ac-DEVD-AMC as substrates. Results expressed as arbitrary units (A.U.) and are means±Standard deviation of 3 independent experiments;
Caspase 3 activity was assessed in quadruplicates using z-DEVD-AMC as substrate and fluorescence were assessed.

Data set [2] deals with phosphorylation of ERK and AKT. Nature of the data set: Immunoblotting of p-ERK and p-AKT in 786-O and 786-R. In kind it is cell-based, human. The note with it: 2.5 μM, 1 to 48 h. The procedure: H: 786-O and 786-R were treated with 2.5 μM compound #1 for 1 to 48 h. p-ERK and p-AKT levels were determined by immunoblotting. ERK and AKT served as loading controls. *P<0.05; **P<0.01; ***P<0.001.
Cells were lysed in buffer containing 3% SDS, 10% glycerol and 0.825 mM Na2HPO4. 30 to 50 μg of proteins were separated on 10% SDS-PAGE, transferred onto a PVDF membrane (Immobilon, Millipore, France) and then exposed to the appropriate antibodies. Proteins were visualized with the ECL system using horseradish peroxidase-conjugated anti-rabbit or anti-mouse secondary antibodies.

In data set [3] the test system is primary RCC cells (TF and CC). Nature of the data set: XTT cell viability and colony assay, primary RCC cells. The class given is cell-based. The note with it: Homo sapiens, XTT 48 h, read-out: EC50 proliferation of primary kidney tumor cells. Here is the method: A: Primary RCC cells (TF and CC) and normal renal cells (15S) were treated with compound #1 (1 to 5 μM) for 48 h. Cell viability was measured by XTT assays;
B: Primary RCC cells (TF and CC) were treated with compound #1 (1 or 2.5 μM) and colored with Giemsa blue after 10 days (representative results of an experiment repeated trice);
as §1
The biological effects of compound #1 on primary RCC tumors cells and normal renal cells harvested from patients suffering from kidney cancer have been explored (FIG. 4).

A further data set deals with healthy cells 15S. Nature of the data set: FACS apoptosis markers, normal renal cells. The class given is cell-based, human. As to conditions: 48 h. Here is the method:
C: Primary RCC cells (TF and CC) and normal renal cells (15S) were treated with compound #1 (1 to 5 μM) for 48 h. Cells were stained with the PI/annexin-V-fluos staining kit according to the manufacturer's indications. Histograms show both annexin-V+/PI− cells (open bars) and annexin-V+/PI+ cells (filled bars). *P<0.05; **P<0.01; ***P<0.001.
as §3

Data set [4] in a line: Stability in cellulo by UPLC/HRMS on 786-O cell line. As to conditions: 24h treatment at room temperature. In kind it is in vitro ADME. An excerpt: The stability of compound #1 was first assayed through UPLC/HRMS analyses in cellulo on the 786-O cell line.

`O=C(Nc1cccc(Cl)c1)Nc1nc2ccc([N+](=O)[O-])cc2s1` [Compound #1, 1-(3-chlorophenyl)-3-(6-nitrobenzo[d]thiazol-2-yl)urea]: the EC50 in the data set with A498 was 2.5 µM; in the data set with 786-O (Homo sapiens, 786-0, XTT assay (48 h), standard deviation of 10%, read-out: EC50 (μM) Kidney 786-O) it was 2 µM; in the data set with CAL33, 2 µM; in the data set on CAL27RR (Homo sapiens, light or radiation study, XTT assay (48 h), resistant to irradiation and cisplatin, standard deviation of 10%, read-out: EC50 (μM) Head and Neck CAL27RR), 2 µM; in [3], roughly 2000 nM. Also, the “time of treatment to total inhibition of proliferation” value was “approximately 65 hours” in the data set on 786-O (786-O cells, 2.5 μM, XTT 24 h to 96 h) and “approximately 70 hours” in the data set on CAL27RR (Cal27R cells, 2.5 μM, XTT 24 h to 96 h). The “apoptosis of healthy human fibroblasts (FHN)” value in data set [1] was “no increased apoptosis over the control experiment”. Besides, in the data set with caspase-3 activity, the caspase-3 activity result is given as “significantly strengthened”. Besides, the “phosphorylation of ERK and AKT” value in data set [2] was “inhibits the phosphorylation of ERK and AKT”. Also, the “apoptosis markers in healthy cells 15S” value with healthy cells 15S was “not the case with healthy cells 15S”. For the same molecule, the “degradation (stability in cellulo)” value in [4] is listed as “No degradation”.

The values are drawn from patent US20210380547A1, “UREA DERIVATIVES FOR TREATING AND/OR PREVENTING CANCER” (CENTRE NATIONAL DE LA RECHERCHE SCIENTIFIQUE, priority 2018, published 2021).
